One may read the Hill slope as a measure of the steepness of the concentration-response curve. In general, IC50 refers to the concentration needed to halve the response being measured.

Read-outs that look alike come from different tables or passages of the source.

The subject of data set [1] is UA sulfation. Kind of data set: Inhibition of UA sulfation (formation of UA-sulfate by HPLC-MS). The data set is classed as biochemical. The following applies: UA concentration 2 μM, triplicate. The protocol:
FIG. 5. IC50 of glycyrrhetinic acid. UA concentration was 2 μM. Determination was done in triplicate.
Table 1. IC50 values for several inhibitors of UA sulfation. UA concentration was 2 μM. Determinations were done in triplicate, and formation of UA-sulfate was determined by HPLC-MS followed by nonlinear regression with the Hill equation.

The conditions of data set [2]: background statement; cited from earlier work.
The conditions of data set [3]: cited from earlier work.
For data set [4] the following is noted: cited from earlier work. This is another data set of the same source.
The conditions of data set [5]: colour and water solubility with time.
A short description of data set [6]: Solubility of ursolic acid salts in hydrophilic solvents (clear saturated solution). The protocol: The salts were weighed, mixed with the solvent, and incubated to reach clear saturated solution (37° C. for water and ethanol; 55° C. for PEG 400 and glycerol).

On to `C=C1C[C@@]23CC[C@H]4[C@@](C)(CCC[C@@]4(C)C(=O)O)[C@@H]2CC[C@]1(O)C3` [Steviol], for which, in data set [1] (Hill equation), the Hill slope is 1.4 ± 0.1. Further, the IC50 in data set [1] (Hill equation, read-out: IC50) was determined as 11.8 ± 1.8 µM.
`C[C@@H]1CC[C@]2(C(=O)O)CC[C@]3(C)C(=CCC4[C@@]5(C)CC[C@H](O)C(C)(C)C5CC[C@]43C)C2[C@H]1C` (some centres unmarked) [Ursolic acid]: the solubility in water entry in data set [2] is listed as “less than 1 μg/mL”. Besides, the oral bioavailability entry in data set [3] is given as “less than 1%”. In data set [4], the “pKa of carboxylic acid” value was 4.7.
As for `C[C@H]1[C@H](C)CC[C@]2(C(=O)O)CC[C@]3(C)C(=CC[C@@H]4[C@@]5(C)CC[C@H](O)C(C)(C)[C@@H]5CC[C@]43C)[C@H]12` [UAdC-W, ursolic acid dicholine hydroxide hydrated complex], in data set [5], the stability entry is given as “stable”.
The same measure, in the same setting: next, `C[C@H]1[C@H](C)CC[C@]2(C(=O)O)CC[C@]3(C)C(=CC[C@@H]4[C@@]5(C)CC[C@H](O)C(C)(C)[C@@H]5CC[C@]43C)[C@H]12` [UAdC-O, ursolic acid dicholine complex]: “unstable”.
As to `C[C@H]1[C@H](C)CC[C@]2(C(=O)[O-])CC[C@]3(C)C(=CC[C@@H]4[C@@]5(C)CC[C@H](O)C(C)(C)[C@@H]5CC[C@]43C)[C@H]12.C[N+](C)(C)CCO` [UAmC, monocholine ursolate], the “PEG400 solubility compared to UAK” value in data set [6] (PEG400, data not shown) is “lower solubility”. In data set [6] (ethanol, FIG. 1B), the “ethanol solubility, comparison” value was “less than UAK”.
As for `C[C@H]1CC[C@]2(NC1)O[C@H]1C[C@H]3[C@@H]4CC[C@H]5C[C@@H](O)CC[C@]5(C)[C@H]4CC[C@]3(C)[C@H]1[C@@H]2C` [Tomatidine], in data set [1] (Hill equation), the Hill slope stood at 0.5 ± 0.03. The IC50 in data set [1] (Hill equation, read-out: IC50) was 84.8 ± 5.1 µM.
For `C[C@]12CC[C@H](O)CC1=CC[C@@H]1[C@@H]2CC[C@]2(C)C(=O)CC[C@@H]12` [DHEA, dehydroepiandrosterone], in that order: 1.4 ± 0.1 and 1.2 ± 0.1 µM.
In data set [1] (Hill equation), `CC(=O)O[C@H]1CC[C@@]2(C)C(=CC(=O)[C@@H]3[C@@H]2CC[C@]2(C)C(=O)CC[C@@H]32)C1` [7-oxo-DHEA acetate] showed a Hill slope of 1.2 ± 0.06. Besides, the IC50 in data set [1] (Hill equation, read-out: IC50) was determined as 20.2 ± 3.6 µM.
Turning to `C[C@]12CC[C@H](O)CC1=CC(=O)C1C2CC[C@]2(C)C(=O)CCC12` (some centres unmarked) [7-oxo-DHEA], the Hill slope in data set [1] (Hill equation) amounted to 1.2 ± 0.4. The IC50 in data set [1] (Hill equation, read-out: IC50) came to 38.1 ± 1.2 µM.
Consider `CC1(C)[C@@H](O)CC[C@]2(C)[C@H]3C(=O)C=C4[C@@H]5C[C@@](C)(C(=O)O)CC[C@]5(C)CC[C@@]4(C)[C@]3(C)CC[C@@H]12` [Glycyrrhetinic acid], for which the IC50 in data set [1] (95% CI, read-out: IC50 (FIG. 5)) was 18.6 µM; in data set [1] (Hill equation, read-out: IC50), 14 ± 0.2 µM. Also, the Hill slope in data set [1] (Hill equation) turned out to be 4.8 ± 3.5.

The values above are taken from US12643922B2 (VIRGINIA COMMONWEALTH UNIVERSITY, priority 2021, dated 2026).
